Test results taken from patent US9850283B2, “Macrocyclic inhibitors of the PD-1/PD-L1 and CD80(B7-1)/PD-L1 protein/protein interactions” (BRISTOL-MYERS SQUIBB COMPANY, priority 2013, dated 2017).
Positions of bridges follow the written chain, without caps; N, C: chain ends. Non-standard residues stand in square brackets, D forms with d. Residues, ends and D or L forms follow the SMILES beside them. ξ: configuration not given here. Phe(4-SO2NH2) = N[C@@H](Cc1ccc(S(N)(=O)=O)cc1)C(=O)O; Phe(3,4-(OMe)2) = COc1ccc(C[C@H](N)C(=O)O)cc1OC; Phe(3-OMe) = COc1cccc(C[C@H](N)C(=O)O)c1; Phe(3-Me) = Cc1cccc(C[C@H](N)C(=O)O)c1; Bta = N[C@@H](Cc1csc2ccccc12)C(=O)O; Hyp = O=C(O)[C@@H]1C[C@@H](O)CN1; NMeNle = CCCC[C@H](NC)C(=O)O; Pen = CC(C)(S)[C@H](N)C(=O)O; ξY = NC(Cc1ccc(O)cc1)C(=O)O; NMeS = CN[C@@H](CO)C(=O)O; NMeA = CN[C@@H](C)C(=O)O; Dap = NC[C@H](N)C(=O)O; ξP = O=C(O)C1CCCN1; Sar = CNCC(=O)O

Columns and labels:
Human PD-L1/PD-1 = target: T1, Human PD-L1/PD-1 (Homo sapiens, UniProt Q9NZQ7); assay: HTRF PD-1-Ig/PD-L1-His binding assay (human PD-L1); settings: cluster symbol; read-out: HTRF IC50 cluster
T1 construct: made in house; host or cells: HEK293T
How it was run: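 Soluble Fc-fused PD-1 and His-tagged PD-L1 (truncated before the transmembrane region) were combined in dPBS with 0.1% (w/v) BSA and 0.05% (v/v) Tween-20. Binding was read by HTRF using europium cryptate anti-Ig antibody (1 nM final) and APC anti-His antibody (20 nM final).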

[1] = target: T2, LK35.2-hPD-L1 cells / PE-labeled PD-1-Ig (Homo sapiens, UniProt Q9NZQ7); assay: LK35.2-hPD-L1 cell binding high-content screening assay; assay type: cell-based; settings: cluster symbol; cell line of CBA not given (LK35.2-hPD-L1 or 293T-hPD-L1); read-out: CBA IC50 cluster
T2 construct: expressed in transfected cells; host or cells: LK35.2 mouse B cell line
How it was run: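 Mouse LK35.2 B cells stably overexpressing human PD-L1 were cultured overnight in RPMI with 10% FCS, then given compound and PE-labeled human PD-1-Ig (1 nM final) for 1 h at 37 °C. After three dPBS washes, bound fluorescence was quantified by high-content imaging.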

T2 sequence (Q9NZQ7 19-290): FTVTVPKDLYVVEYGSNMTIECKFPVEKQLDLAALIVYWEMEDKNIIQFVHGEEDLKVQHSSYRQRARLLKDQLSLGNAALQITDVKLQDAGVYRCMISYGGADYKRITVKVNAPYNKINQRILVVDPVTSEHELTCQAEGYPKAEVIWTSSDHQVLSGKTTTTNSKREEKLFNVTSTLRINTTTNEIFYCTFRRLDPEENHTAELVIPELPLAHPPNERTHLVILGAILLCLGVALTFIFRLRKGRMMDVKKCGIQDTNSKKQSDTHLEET
T1 sequence (Q9NZQ7 with tags, fused parts or gaps): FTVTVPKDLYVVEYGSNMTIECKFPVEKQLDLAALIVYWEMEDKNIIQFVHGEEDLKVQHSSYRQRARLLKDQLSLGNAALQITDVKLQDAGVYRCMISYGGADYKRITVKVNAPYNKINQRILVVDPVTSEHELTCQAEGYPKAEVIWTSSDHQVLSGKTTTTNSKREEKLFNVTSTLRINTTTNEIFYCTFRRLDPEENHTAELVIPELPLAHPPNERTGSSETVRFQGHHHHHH

Compound | IC50 (Human PD-L1/PD-1) [nM] | IC50 [1] [nM]
CCCC[C@H]1C(=O)N(C)[C@@H](CCCC)C(=O)N[C@@H](CCCNC(=N)N)C(=O)N[C@H](C(=O)NCC(N)=O)CSCC(=O)N[C@@H](Cc2ccccc2)C(=O)N(C)[C@@H](C)C(=O)N[C@@H](CC(N)=O)C(=O)N2CCC[C@H]2C(=O)N[C@@H](Cc2cnc[nH]2)C(=O)N[C@@H](CC(C)C)C(=O)N(C)CC(=O)N[C@@H](Cc2ccc(OC)c(OC)c2)C(=O)N[C@@H](CO)C(=O)N[C@@H](Cc2c[nH]c3ccccc23)C(=O)N1C [Example 1080] ({CH2CO}-F[NMeA]NPHL[Sar][Phe(3,4-(OMe)2)]SW[NMeNle][NMeNle]RCG-NH2; thioether N-14) | > 30.5 | > 74.3
CCCC[C@H]1C(=O)N(C)[C@@H](CCCC)C(=O)N[C@@H](CCCNC(=N)N)C(=O)N[C@H](C(=O)NCC(N)=O)CSCC(=O)N[C@@H](Cc2ccccc2)C(=O)N(C)[C@@H](C)C(=O)N[C@H](C)C(=O)N2CCC[C@H]2C(=O)N[C@@H](Cc2cnc[nH]2)C(=O)N[C@@H](CC(C)C)C(=O)N(C)CC(=O)N[C@@H](Cc2c[nH]c3ccccc23)C(=O)N[C@@H](CO)C(=O)N[C@@H](Cc2c[nH]c3ccccc23)C(=O)N1C [Example 1081] ({CH2CO}-F[NMeA][dA]PHL[Sar]WSW[NMeNle][NMeNle]RCG-NH2; thioether N-14) | > 30.5 | > 74.3
CCCC[C@H]1C(=O)N(C)[C@@H](CCCC)C(=O)N[C@@H](CCCNC(=N)N)C(=O)N[C@H](C(=O)NCC(N)=O)C(C)(C)SCC(=O)N[C@@H](Cc2ccccc2)C(=O)N(C)[C@@H](C)C(=O)N[C@@H](CC(N)=O)C(=O)N2CCC[C@H]2C(=O)N[C@@H](Cc2cnc[nH]2)C(=O)N[C@@H](CC(C)C)C(=O)N(C)CC(=O)N[C@@H](Cc2c[nH]c3ccccc23)C(=O)N[C@@H](CO)C(=O)N[C@@H](Cc2c[nH]c3ccccc23)C(=O)N1C [Example 1083] ({CH2CO}-F[NMeA]NPHL[Sar]WSW[NMeNle][NMeNle]R[Pen]G-NH2; thioether N-14) | 0.385 to 6.74 | 4.78 to 72.9
CCCC[C@H]1C(=O)N(C)[C@@H](CCCC)C(=O)N[C@@H](CCCNC(=N)N)C(=O)N[C@H](C(=O)NCC(N)=O)CSCC(=O)N[C@@H](Cc2ccccc2)C(=O)N(C)[C@@H](C)C(=O)N[C@@H](CC(N)=O)C(=O)N2CCC[C@H]2C(=O)N[C@@H](Cc2cnc[nH]2)C(=O)N[C@@H](CC(C)C)C(=O)N(C)CC(=O)N[C@@H](Cc2cccc(OC)c2)C(=O)N[C@@H](CO)C(=O)N[C@@H](Cc2c[nH]c3ccccc23)C(=O)N1C [Example 1085] ({CH2CO}-F[NMeA]NPHL[Sar][Phe(3-OMe)]SW[NMeNle][NMeNle]RCG-NH2; thioether N-14) | > 30.5 | > 74.3
CCCC[C@H]1C(=O)N(C)[C@@H](CCCC)C(=O)N[C@@H](CCCNC(=N)N)C(=O)N[C@H](C(=O)NCC(N)=O)CSCC(=O)N[C@@H](Cc2ccccc2)C(=O)N(C)[C@@H](C)C(=O)N[C@@H](CC(N)=O)C(=O)N2CCC[C@H]2C(=O)N[C@@H](Cc2cnc[nH]2)C(=O)N[C@@H](CC(C)C)C(=O)N(C)CC(=O)N[C@@H](Cc2cccc(C)c2)C(=O)N[C@@H](CO)C(=O)N[C@@H](Cc2c[nH]c3ccccc23)C(=O)N1C [Example 1086] ({CH2CO}-F[NMeA]NPHL[Sar][Phe(3-Me)]SW[NMeNle][NMeNle]RCG-NH2; thioether N-14) | > 30.5 | > 74.3
CCCC[C@H]1C(=O)N(C)[C@@H](CCCC)C(=O)N[C@@H](CCCNC(=N)N)C(=O)N[C@H](C(=O)NCC(N)=O)CSCC(=O)N[C@@H](Cc2ccccc2)C(=O)N(C)[C@@H](C)C(=O)N[C@@H](CC(N)=O)C(=O)N2CCC[C@H]2C(=O)N[C@@H](CO)C(=O)N[C@@H](CC(C)C)C(=O)N(C)CC(=O)N[C@@H](Cc2c[nH]c3ccccc23)C(=O)N[C@@H](CO)C(=O)N[C@@H](Cc2c[nH]c3ccccc23)C(=O)N1C [Example 1088] ({CH2CO}-F[NMeA]NPSL[Sar]WSW[NMeNle][NMeNle]RCG-NH2; thioether N-14) | 6.76 to 30.3 | 4.78 to 72.9

Now from value to compound:

IC50 (Human PD-L1/PD-1) [nM] | IC50 [1] [nM] | Compound
> 30.5 | > 74.3 | CCCC[C@H]1C(=O)N(C)[C@@H](CCCC)C(=O)N[C@@H](CCCNC(=N)N)C(=O)N[C@H](C(=O)NCC(N)=O)CSCC(=O)N[C@@H](Cc2ccccc2)C(=O)N(C)[C@@H](C)C(=O)N[C@@H](CC(N)=O)C(=O)N2CCC[C@H]2C(=O)N[C@@H](Cc2cnc[nH]2)C(=O)N[C@@H](CC(C)C)C(=O)N(C)CC(=O)N[C@@H](Cc2c[nH]c3ccccc23)C(=O)N(C)[C@@H](CO)C(=O)N[C@@H](Cc2c[nH]c3ccccc23)C(=O)N1C [Example 1078] ({CH2CO}-F[NMeA]NPHL[Sar]W[NMeS]W[NMeNle][NMeNle]RCG-NH2; thioether N-14)
> 30.5 | > 74.3 | CCCC[C@H]1C(=O)N(C)[C@@H](CCCC)C(=O)N[C@@H](CCCNC(=N)N)C(=O)N[C@H](C(=O)NCC(N)=O)CSCC(=O)N[C@@H](Cc2ccccc2)C(=O)N(C)[C@@H](C)C(=O)N[C@@H](CC(C)C)C(=O)N2CCC[C@H]2C(=O)N[C@@H](Cc2cnc[nH]2)C(=O)N[C@@H](CC(C)C)C(=O)N(C)CC(=O)N[C@@H](Cc2c[nH]c3ccccc23)C(=O)N[C@@H](CO)C(=O)N[C@@H](Cc2c[nH]c3ccccc23)C(=O)N1C [Example 1082] ({CH2CO}-F[NMeA]LPHL[Sar]WSW[NMeNle][NMeNle]RCG-NH2; thioether N-14)
0.385 to 6.74 | 0.158 to 4.71 | CCCC[C@H]1C(=O)N(C)[C@@H](CCCC)C(=O)N[C@@H](CCCNC(=N)N)C(=O)N[C@H](C(=O)NCC(N)=O)CSCC(=O)N[C@@H](Cc2ccc(O)cc2)C(=O)N(C)[C@@H](C)C(=O)N[C@@H](CC(N)=O)C(=O)N2CCC[C@H]2C(=O)N[C@@H](CN)C(=O)N[C@@H](CC(C)C)C(=O)N2CCC[C@H]2C(=O)N[C@@H](Cc2c[nH]c3ccccc23)C(=O)N[C@@H](CO)C(=O)N[C@@H](Cc2csc3ccccc23)C(=O)N1C [Example 1084] ({CH2CO}-Y[NMeA]NP[Dap]LPWS[Bta][NMeNle][NMeNle]RCG-NH2; thioether N-14)
0.385 to 6.74 | 0.158 to 4.71 | CCCC[C@H]1C(=O)N(C)[C@@H](CCCC)C(=O)N[C@@H](CCCNC(=N)N)C(=O)N[C@H](C(=O)NCC(N)=O)CSCC(=O)N[C@@H](Cc2ccccc2)C(=O)N(C)[C@@H](C)C(=O)N[C@@H](CC(N)=O)C(=O)N2CCC[C@H]2C(=O)N[C@@H](Cc2cnc[nH]2)C(=O)N[C@@H](CC(C)C)C(=O)N2C[C@H](O)C[C@H]2C(=O)N[C@@H](Cc2c[nH]c3ccccc23)C(=O)N[C@@H](CO)C(=O)N[C@@H](Cc2c[nH]c3ccccc23)C(=O)N1C [Example 1087] ({CH2CO}-F[NMeA]NPHL[Hyp]WSW[NMeNle][NMeNle]RCG-NH2; thioether N-14)
> 30.5 | > 74.3 | CCCC[C@H]1C(=O)N(C)[C@@H](CCCC)C(=O)N[C@@H](CCCNC(=N)N)C(=O)N[C@H](C(=O)NCC(N)=O)CSCC(=O)N[C@@H](Cc2ccccc2)C(=O)N(C)[C@@H](C)C(=O)N[C@@H](CCC(N)=O)C(=O)N2CCC[C@H]2C(=O)N[C@@H](Cc2cnc[nH]2)C(=O)N[C@@H](CC(C)C)C(=O)N(C)CC(=O)N[C@@H](Cc2c[nH]c3ccccc23)C(=O)N[C@@H](CO)C(=O)N[C@@H](Cc2c[nH]c3ccccc23)C(=O)N1C [Example 1089] ({CH2CO}-F[NMeA]QPHL[Sar]WSW[NMeNle][NMeNle]RCG-NH2; thioether N-14)
0.385 to 6.74 | 0.158 to 4.71 | CCCC[C@H]1C(=O)N(C)[C@@H](CCCC)C(=O)N[C@@H](CCCNC(=N)N)C(=O)N[C@H](C(=O)NCC(N)=O)CSCC(=O)N[C@@H](Cc2ccc(O)cc2)C(=O)N(C)[C@@H](C)C(=O)N[C@@H](CC(N)=O)C(=O)N2CCC[C@H]2C(=O)N[C@@H](Cc2cnc[nH]2)C(=O)N[C@@H](CCC(=O)O)C(=O)N2CCC[C@H]2C(=O)N[C@@H](Cc2c[nH]c3ccccc23)C(=O)N[C@@H](CO)C(=O)N[C@@H](Cc2c[nH]c3ccccc23)C(=O)N1C [Example 1090] ({CH2CO}-Y[NMeA]NPHEPWSW[NMeNle][NMeNle]RCG-NH2; thioether N-14)
0.385 to 6.74 | 0.158 to 4.71 | CCCC[C@H]1C(=O)N(C)[C@@H](CCCC)C(=O)N[C@@H](CCCNC(=N)N)C(=O)N[C@H](C(=O)NCC(N)=O)CSCC(=O)NC(Cc2ccc(O)cc2)C(=O)N(C)[C@@H](C)C(=O)N[C@@H](CC(N)=O)C(=O)N2CCCC2C(=O)N[C@@H](CN)C(=O)N[C@@H](CCC(=O)O)C(=O)N2CCC[C@H]2C(=O)N[C@@H](Cc2c[nH]c3ccccc23)C(=O)N[C@@H](CO)C(=O)N[C@@H](Cc2c[nH]c3ccccc23)C(=O)N1C (stereo partly drawn) [Example 1091] ({CH2CO}-[ξY][NMeA]N[ξP][Dap]EPWSW[NMeNle][NMeNle]RCG-NH2; thioether N-14)
6.76 to 30.3 | 4.78 to 72.9 | CCCC[C@H]1C(=O)N(C)[C@@H](CCCC)C(=O)N[C@@H](CCCNC(=N)N)C(=O)N[C@H](C(=O)NCC(N)=O)CSCC(=O)N[C@@H](Cc2ccccc2)C(=O)N(C)[C@@H](C)C(=O)N[C@@H](CC(=O)O)C(=O)N2CCC[C@H]2C(=O)N[C@@H](Cc2cnc[nH]2)C(=O)N[C@@H](CC(C)C)C(=O)N(C)CC(=O)N[C@@H](Cc2c[nH]c3ccccc23)C(=O)N[C@@H](CO)C(=O)N[C@@H](Cc2c[nH]c3ccccc23)C(=O)N1C [Example 1092] ({CH2CO}-F[NMeA]DPHL[Sar]WSW[NMeNle][NMeNle]RCG-NH2; thioether N-14)
> 30.5 | > 74.3 | CCCC[C@H]1C(=O)N(C)[C@@H](CCCC)C(=O)N[C@@H](CCCNC(=N)N)C(=O)N[C@H](C(=O)NCC(N)=O)CSCC(=O)N[C@@H](Cc2ccc(S(N)(=O)=O)cc2)C(=O)N(C)[C@@H](C)C(=O)N[C@@H](CC(N)=O)C(=O)N2CCC[C@H]2C(=O)N[C@@H](Cc2cnc[nH]2)C(=O)N[C@@H](CC(C)C)C(=O)N(C)CC(=O)N[C@@H](Cc2c[nH]c3ccccc23)C(=O)N[C@@H](CO)C(=O)N[C@@H](Cc2c[nH]c3ccccc23)C(=O)N1C [Example 1093] ({CH2CO}-[Phe(4-SO2NH2)][NMeA]NPHL[Sar]WSW[NMeNle][NMeNle]RCG-NH2; thioether N-14)
